Reference: patent US10065954B2, “Substituted imidazo[4,5-c]pyridines as SSAO inhibitors” (Proximagen Limited, priority 2014, dated 2018)

Legend:
[1] = molecular target: T1, purified recombinantly expressed human SSAO (Homo sapiens, UniProt Q16853); assay: SSAO enzyme inhibition assay (benzylamine substrate; hydrogen peroxide/HRP-coupled or 14C-aldehyde detection); assay type: biochemical; details: SSAO inhibitory activity; recombinant human SSAO, RT
T1 construct: made in house
T1 sequence (Q16853 1-763): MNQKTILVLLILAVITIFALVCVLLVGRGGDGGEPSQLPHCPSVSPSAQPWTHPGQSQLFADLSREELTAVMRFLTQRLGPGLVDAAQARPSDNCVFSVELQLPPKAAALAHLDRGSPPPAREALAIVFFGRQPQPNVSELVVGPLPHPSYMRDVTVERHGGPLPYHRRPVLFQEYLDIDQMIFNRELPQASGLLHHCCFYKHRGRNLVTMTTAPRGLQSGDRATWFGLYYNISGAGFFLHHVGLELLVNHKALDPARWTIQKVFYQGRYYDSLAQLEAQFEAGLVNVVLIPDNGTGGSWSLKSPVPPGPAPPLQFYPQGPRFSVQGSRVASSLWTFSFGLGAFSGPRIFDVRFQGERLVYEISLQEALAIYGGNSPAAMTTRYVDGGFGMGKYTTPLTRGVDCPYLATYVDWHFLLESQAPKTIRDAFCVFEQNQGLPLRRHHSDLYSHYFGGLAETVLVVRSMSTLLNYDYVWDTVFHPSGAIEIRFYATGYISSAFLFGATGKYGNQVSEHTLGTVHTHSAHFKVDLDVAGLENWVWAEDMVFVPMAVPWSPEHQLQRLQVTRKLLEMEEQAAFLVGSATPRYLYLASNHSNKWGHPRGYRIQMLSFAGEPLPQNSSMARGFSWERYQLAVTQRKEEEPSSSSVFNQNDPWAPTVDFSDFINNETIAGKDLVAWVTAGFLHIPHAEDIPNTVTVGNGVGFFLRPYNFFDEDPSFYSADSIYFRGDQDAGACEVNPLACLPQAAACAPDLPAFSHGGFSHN
Description: All primary assays were performed at RT. with purified recombinantly expressed human SSAO. Enzyme was prepared essentially as described in Öhman et al. (Protein Expression and Purification 46 (2006) 321-331). In addition, secondary- and selectivity assays were performed using SSAO prepared from various tissues or purified rat recombinant SSAO. The enzyme activity was assayed with benzylamine as substrate by measuring either benzaldehyde production, using ^14C-labeled substrate, or by utilizing the production of hydrogen peroxide in a horseradish peroxidase (HRP) coupled reaction. Briefly, test compounds were dissolved in dimethyl sulfoxide (DMSO) to a concentration of 10 mM. Dose-response measurements were assayed by either creating 1:10 serial dilutions in DMSO to produce a 7 point curve or by making 1:3 serial dilutions in DMSO to produce 11 point curves. The top concentrations were adjusted depending on the potency of the compounds and subsequent dilution in reaction buffer yielded a final DMSO concentration ≤2%.
In a horseradish peroxidase (HRP) coupled reaction, hydrogen peroxide oxidation of 10-acetyl-3,7-dihydroxyphenoxazine produced resorufin, which is a highly fluorescent compound (Zhout and Panchuk-Voloshina. Analytical Biochemistry 253 (1997) 169-174; Amplex® Red Hydrogen Peroxide/peroxidase Assay kit, Invitrogen A22188). Enzyme and compounds in 50 mM sodium phosphate, pH 7.4 were set to pre-incubate in flat-bottomed microtiter plates for approximately 15 min before initiating the reaction by addition of a mixture of HRP, benzylamine and Amplex reagent. Benzylamine concentration was fixed at a concentration corresponding to the Michaelis constant, determined using standard procedures. Fluorescence intensity was then measured at several time points during 1-2 h, exciting at 544 nm and reading the emission at 590 nm. For the human SSAO assay final concentrations of the reagents in the assay wells were: SSAO enzyme 1 ug/mL, benzylamine 100 uM, Amplex reagent 20 uM, HRP 0.1 U/mL and varying concentrations of test compound. The inhibition was measured as % decrease of the signal compared to a control without inhibitor (only diluted DMSO). The background signal from a sample containing no SSAO enzyme was subtracted from all data points. Data was fitted to a four parameter logistic model and IC50 values were calculated using the GraphPad Prism 4 or XLfit 4 programs.
SSAO activity was assayed using […] benzylamine and analysed by measuring radioactive benzaldehyde. In a white 96-well optiplate (Packard), 20 uL of diluted test compound was pre-incubated at RT with 20 uL SSAO enzyme for approximately 15 min with continuous agitation. All dilutions were made with PBS. The reaction was initiated by adding 20 uL of the benzylamine substrate solution containing Benzylamine hydrochloride (CFA589, GE Healthcare). The plate was incubated for 1 h as above after which the reaction was stopped by acidification (10 uL 1M aq HCl). Then 90 uL Micro Scint-E solution (Perkin-Elmer) was added to each well and the plate was continuously mixed for 15 min. Phase separation occurred instantly and activity was read in a Topcount scintillation counter (Perkin-Elmer). In the final reaction well, the human recombinant SSAO concentration was 10 ug/mL. In order to optimize sensitivity, the substrate concentration was decreased as compared to the HRP coupled assay in order to get a higher fraction of radioactive product. In the human SSAO assay, benzylamine concentration was 40 uM (0.2uCi/mL). Data was analysed as above.

[2] = molecular target: T2, human ether a go-go related gene (hERG) K+ channel (Homo sapiens, UniProt Q12809); assay: hERG assay, IonWorks patch clamp electrophysiology; assay type: cell-based; details: Chinese Hamster Lung cell line stably expressing hERG; max assay concentration 11 uM
T2 construct: Chinese Hamster Lung cell line stably expressing the full length hERG channel; expressed in transfected cells; host or cells: Chinese Hamster Lung cell line
Description: Compounds of the invention were tested for inhibition of the human ether a go-go related gene (hERG) K^+ channel using IonWorks patch clamp electrophysiology. 8 Point concentration-response curves were generated on two occasions using 3-fold serial dilutions from the maximum assay concentration (11 uM). Electrophysiological recordings were made from a Chinese Hamster Lung cell line stably expressing the full length hERG channel. Single cell ion currents were measured in the perforated patch clamp configuration (100 ug/mL amphoterocin) at RT using an IonWorks Quattro instrument. The internal solution contained 140 mM KCl, 1 mM MgCl2, 1 mM EGTA and 20 mM HEPES and was buffered to pH 7.3. The external solution contained 138 mM NaCl, 2.7 mM KCl, 0.9 mM CaCl2, 0.5 mM MgCl2, 8 mM Na2HPO4 and 1.5 mM KH2PO4, and was buffered to pH 7.3. Cells were clamped at a holding potential of […] for 30 s and then stepped to +40 mV for 1 s. This was followed by a hyperpolarising step of 1 s to […] to evoke the hERG tail current. This sequence was repeated 5 times at a frequency of 0.25 Hz. Currents were measured from the tail step at the 5th pulse, and referenced to the holding current. Compounds were incubated for 6-7 min prior to a second measurement of the hERG signal using an identical pulse train. A minimum of 17 cells were required for each pIC50 curve fit. A control compound (quinidine) was used (see Table 13 below).

T2 sequence (Q12809 whole entry): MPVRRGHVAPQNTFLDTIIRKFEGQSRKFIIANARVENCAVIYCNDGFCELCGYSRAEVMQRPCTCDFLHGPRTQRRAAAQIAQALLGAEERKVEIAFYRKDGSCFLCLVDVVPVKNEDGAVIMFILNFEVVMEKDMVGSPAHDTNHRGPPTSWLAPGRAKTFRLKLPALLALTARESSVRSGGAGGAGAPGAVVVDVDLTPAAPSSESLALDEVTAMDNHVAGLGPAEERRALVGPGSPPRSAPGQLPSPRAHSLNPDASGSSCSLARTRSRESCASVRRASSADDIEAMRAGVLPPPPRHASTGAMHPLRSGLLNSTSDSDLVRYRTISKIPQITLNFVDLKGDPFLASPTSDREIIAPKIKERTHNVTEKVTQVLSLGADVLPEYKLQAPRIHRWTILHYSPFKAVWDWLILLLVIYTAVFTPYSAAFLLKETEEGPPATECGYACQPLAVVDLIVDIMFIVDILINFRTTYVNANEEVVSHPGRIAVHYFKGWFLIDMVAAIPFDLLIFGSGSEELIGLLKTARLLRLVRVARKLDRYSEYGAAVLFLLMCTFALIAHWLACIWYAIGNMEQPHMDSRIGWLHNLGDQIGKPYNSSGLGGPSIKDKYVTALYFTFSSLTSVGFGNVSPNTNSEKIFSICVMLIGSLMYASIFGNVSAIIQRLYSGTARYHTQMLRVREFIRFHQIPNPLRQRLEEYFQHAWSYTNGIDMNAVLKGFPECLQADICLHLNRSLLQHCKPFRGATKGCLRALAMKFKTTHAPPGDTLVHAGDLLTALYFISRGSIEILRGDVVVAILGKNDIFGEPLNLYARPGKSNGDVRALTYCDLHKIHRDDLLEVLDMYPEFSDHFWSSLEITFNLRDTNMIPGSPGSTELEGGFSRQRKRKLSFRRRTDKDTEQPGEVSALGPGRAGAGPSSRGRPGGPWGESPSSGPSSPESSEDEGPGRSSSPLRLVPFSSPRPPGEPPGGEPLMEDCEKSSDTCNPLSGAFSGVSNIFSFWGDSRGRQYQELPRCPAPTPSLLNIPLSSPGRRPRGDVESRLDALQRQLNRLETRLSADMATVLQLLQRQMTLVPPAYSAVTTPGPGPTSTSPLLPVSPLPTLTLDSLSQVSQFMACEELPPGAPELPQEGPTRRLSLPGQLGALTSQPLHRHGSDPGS

Row | SMILES | IC50 [1] [nM] | IC50 [2] [nM]
1 | Cc1ccc(-n2c(-c3ccc(N4CCCC4)nc3)nc3ccncc32)cn1 [Compound 18, 5-[3-(6-Methylpyridin-3-yl)-3H-imidazo[4,5-c]pyridin-2-yl]-2-(pyrrolidin-1-yl)pyridine] | < 50 | > 10000
2 | Cc1cc(N2CCOCC2)ncc1-c1nc2ccncc2n1-c1ccc(Cl)cn1 [Compound 12, 4-{5-[3-(5-Chloropyridin-2-yl)-3H-imidazo[4,5-c]pyridin-2-yl]-4-methylpyridin-2-yl}morpholine] | < 50 | > 10000
3 | Cc1ccc(-n2c(-c3ccc(NCCN4CCOCC4)nc3)nc3ccncc32)cc1 [Compound 21, 5-[3-(4-Methylphenyl)-3H-imidazo[4,5-c]pyridin-2-yl]-N-[2-(morpholin-4-yl)ethyl]pyridin-2-amine] | < 50 | > 10000
4 | Cc1ccc(-n2c(-c3ccc(N4CCC(F)CC4)nc3)nc3ccncc32)cn1 [Compound 19, 2-(4-Fluoropiperidin-1-yl)-5-[3-(6-methylpyridin-3-yl)-3H-imidazo[4,5-c]pyridin-2-yl]pyridine] | < 50 | > 10000
5 | Cc1ccc(-n2c(-c3ccc(NC4CC4)nc3)nc3ccncc32)cc1 [Compound 17, N-Cyclopropyl-5-[3-(4-methylphenyl)-3H-imidazo[4,5-c]pyridin-2-yl]pyridin-2-amine] | < 50 | > 10000
6 | Fc1ccc(-n2c(-c3ccc(NC4CCOCC4)nc3)nc3ccncc32)cc1 [Compound 15, 5-[3-(4-Fluorophenyl)-3H-imidazo[4,5-c]pyridin-2-yl]-N-(oxan-4-yl)pyridin-2-amine] | < 50 | > 10000
7 | Fc1ccc(-n2c(-c3ccc(N4CCOCC4)nc3)nc3ccncc32)nc1 [Compound 1, 4-{5-[3-(5-Fluoropyridin-2-yl)-3H-imidazo[4,5-c]pyridin-2-yl]pyridin-2-yl}morpholine] | 50 to 200 | –
8 | Fc1ccc(-n2c(-c3cnc(N4CCCC4)nc3)nc3ccncc32)nc1 [Compound 27, 5-[3-(5-Fluoropyridin-2-yl)-3H-imidazo[4,5-c]pyridin-2-yl]-2-(pyrrolidin-1-yl)pyrimidine] | 50 to 200 | –
9 | Cc1ccc(-n2c(-c3ccc(NC4CCOCC4)nc3)nc3ccncc32)cc1 [Compound 10, 5-[3-(4-Methylphenyl)-3H-imidazo[4,5-c]pyridin-2-yl]-N-(oxan-4-yl)pyridin-2-amine] | < 50 | > 10000
10 | Cc1cc(N2CCOCC2)ncc1-c1nc2ccncc2n1-c1ccc(Cl)cc1 [Compound 9, 4-{5-[3-(4-Chlorophenyl)-3H-imidazo[4,5-c]pyridin-2-yl]-4-methylpyridin-2-yl}morpholine] | < 50 | –
11 | Cc1ccc(-n2c(-c3ccc(N4CCCC4)cc3)nc3ccncc32)nc1 [Compound 36, 5-Methyl-2-{2-[4-(pyrrolidin-1-yl)phenyl]-3H-imidazo[4,5-c]pyridin-3-yl}pyridine] | 50 to 200 | –
